“Also recorded” adds a separate entry of the source. Where two headings read alike, the source gives them in different places.
What was measured:
Caco-2 cells [1] = test: MTT cytotoxicity against Caco-2 cells; format: cell-based, human; conditions: 24 h incubation, mean ± SD of three analyses, read-out: IC50 Conc. against Caco-2 cells
Protocol: (§1) The American Type Culture Collection (ATCC) provided WI-38 (ATCC CCL-75), a cell line from the healthy human embryonic lung, and Caco-2 (ATCC HTB-37), a cell line from colon cancer. These cells were developed in DMEM medium that was supplemented with antibiotics and fetal bovine serum in a 5% CO2 humidified incubator at 37 °C.
The toxicity of the tested compounds (3a–3k) toward Caco-2 cancer cells was examined and compared to 5-Fluorouracil (5-FU, the standard reference drug) utilizing MTT assay, as previously explained. In brief, 1 × 10^5 Caco-2 cells/mL were distributed into each well of a 96-well plate and kept overnight at 37 °C in their growth mixture. The cells were then subjected to the various doses of the studied compounds (50–1000 µM). Following that, the cells were exposed to MTT solution, which induced formazan formation from the MTT, a byproduct of the metabolism of MTT that is proportionate to the quantity of intact cells. To further dissolve the formazan crystal, dimethyl sulfoxide was applied to the cells. Caco-2 survival was obtained through measuring the value of the optical density at 570 nm implementing a microplate reader (Bio-Rad, Hercules, CA, USA), and the effect of the substances on cell proliferation was expressed using the aforementioned formula (2):Cell viability % = (Abs. of tested sample − Abs. of blank)/(Abs. of control − Abs. of blank) × 100(2)
The half-suppression (IC50) dose of the test drugs over a 24 h incubation period was identified through examination of the concentration–response curve. Each value was evaluated three times, and the average of the three ratings was employed to obtain the results.

BAX [2] = test: ELISA of BAX protein in Caco-2 cells; format: cell-based, human; conditions: Caco-2, IC50 dose
Protocol: (§2) Protein expression levels of the under investigation genes were evaluated in Caco-2 cells treated with compound 3e using an ELISA assay. Three different ELISA kits were used: one for BAX (ab199080), one for cleaved Caspase-3 (ab220655), and one for BCL-2 (ab272102), which were supplied via Abcam (Cambridge, UK). All of these kits are based on a single, highly sensitive sandwich enzyme assay that lasts 90 min and uses a precoated ELISA plate and an anti-tag antibody to capture antibodies that have been labeled with an affinity tag. The tested compound 3e-treated cultured Caco-2 cells were centrifuged, the resulting pellets were discarded, and the residual supernatant was mixed with an antibody cocktail solution in a 96-well ELISA plate. The plate was then incubated for 1 h at room temperature. After thoroughly rinsing the plate in wash buffer (1×), in each well, a ten min incubation period of tetramethylbenzidine substrate solution was conducted. Following that, the plate was stored in a dim area. The intensity at 450 nm was then measured with a microplate reader immediately after a stop solution was added.

Caco-2 cells [3] = test: Comet assay (DNA fragmentation); format: cell-based, human
Source text: The production of genotoxicity in Caco-2 cells treated with compound 3e was investigated using a comet test. Caco-2 cells were pretreated with a caspase-3 inhibitor (Z-DEVD-FMK) to ascertain whether or not caspase-3 activity contributed to the DNA damage induced by compound 3e. Using the comet test, in order to assess the influence of compound 3e upon DNA damage, Caco-2 cells were subjected to either compound 3e separately (IC50 concentration) or compound 3e (IC50 concentration) following prior treatment with Z-DEVD-FMK ([…]) for 1 h. Broken strands of broken DNA will detach from intact strands of cellular DNA during fragmentation, producing a structure similar to a comet tail visible under a fluorescence microscope (Carl Zeiss, Axiostar Plus 1169–149, Jena, Germany). For each slide, 100 photos of comets of varying shapes were captured using a computerized image analysis system. Afterwards, the photos were analyzed using the TriTek Comet ScoreTM program (TriTek Corp., Sumerduck, VA, USA) to gather information about the comet’s properties. The tail DNA and tail moment, two often-utilized markers, were built to be used in discovering the data. The Olive tail moment (OTM), which is also called a tail moment parameter, is generally accepted as the gold standard for evaluating DNA damage. Its value, which was calculated using Equation (3), is proportional to the tail’s DNA mobility and DNA abundance. OTM = quantity of tail moment × quantity of tail DNA divided by 100(3)

Caco-2 cells [4] = test: Annexin V/PI flow cytometry apoptosis assay; format: cell-based, human; conditions: Caco-2, IC50 dose, 24 h
Protocol: The annexin V/PI assay focuses on the translocation of phosphatidylserine (PS) from the inner plasma membrane toward the cell surface within apoptotic cells. Accordingly, the Annexin V-FITC detection kit I (BD Biosciences) was implemented to figure out the numbers of apoptotic and necrotic cells in both the compound 3e-treated and untreated Caco-2 cells for 24 h.. In brief, Caco-2 cells were collected, expanded in 6-well culture dishes with 1 × 10^6 cells per well, and then allowed to incubate for an overnight period to promote cell adhesion and proliferation. After only 24 h in the presence of the 3e compound, the cells were trypsinized, centrifuged, rinsed with PBS, and then mixed with a solution containing Annexin V binding buffer (1×) before being exposed to the Annexin V-FITC and propidium iodide stains. At last, a flow cytometer (BD FACSCalibur™, Biosciences, San Jose, CA, USA) was implemented to find the amount of early as well as late apoptotic cells, and the outcomes were presented graphically.

Caspase-3 = test: qRT-PCR of Caspase-3 mRNA in Caco-2 cells; format: cell-based, human; conditions: Caco-2, IC50 concentration
Source text: (§3) The relative amounts of messenger RNA (mRNA) for apoptosis-related genes (BCL-2, Caspase-3, and BAX) have been monitored in order to look into potential processes relating to the effect of the tested 3e compound on apoptosis inside the treated Caco-2 cancer cells. In a nutshell, Thermo Fisher Scientific’s RNA purification kit (Waltham, MA, USA) (catalog #K0731) was used to isolate total RNA from both control- and Caco-2-treated cells, as per the manufacturer’s instructions. The ratio of A260/A280 was then quantified using a spectrophotometer to figure out the amounts of extracted RNA in each sample. Then, following the manufacturer’s instructions, first-strand cDNA was produced from the collected RNA samples using a kit made by Thermo Fisher Scientific called RevertAid (catalog #K1621). Real-time PCR amplification was performed on an Applied Biosystems StepOnePlusTM instrument using the Thermo Fisher Scientific Maxima SYBR Green qPCR kit (catalog #K0221) and gene-specific primers (Invitrogen, Waltham, MA, USA), as detailed in Table 3. Then, the relative quantification (RQ) of the utilized genes was calculated using a comparative threshold cycle approach, compared against their varied expression in the untreated samples, and normalized to B-actin as a housekeeping gene. […]

cleaved Caspase-3 = test: ELISA of cleaved Caspase-3 protein in Caco-2 cells; format: cell-based, human; conditions: Caco-2, IC50 dose
Protocol: as §2

BCL-2 [5] = test: ELISA of BCL-2 protein in Caco-2 cells; format: cell-based, human; conditions: Caco-2, IC50 dose
Protocol: as §2

Caco-2 cells [6] = test: LDH release ELISA in treated Caco-2 cells; format: cell-based, human; conditions: compound-treated Caco-2 cells, p < 0.001
Protocol: The amount of lactate dehydrogenase enzyme (LDH) secreted by compound 3e-treated Caco-2 cells was measured using the double-antibody-sandwich ELISA method (Sun-Red, Cat. N. 201-28-0094) to confirm the cytotoxic impact of the tested chemical on Caco-2 cells. Specifically, 40 µL of the supernatant obtained from centrifuging the Caco-2 cells that had been treated with the 3e compound was added to the test wells. Next, LDH-antibody (10 µL) and Streptavidin-HRP (50 µL) were transferred to every well. After 60 min of incubation at 37 °C, the 96-well plate was shaken gently. […] The 96-well plate was then gently shaken and left to incubate for 60 min at 37 °C. The plates were then washed, and each test well received 50 µL of chromogen solution A and 50 µL of chromogen solution B. The plates were then incubated at 37 °C, and darkened for 10 min. Stop solution (50 µL) was then applied to each well. Once testing was complete, 450 nm was used to determine the plate’s optical density (OD). The amount of released LDH was calculated using the standard curve that had been previously established.

wi38 cells = test: MTT test on healthy WI38 cells; format: cell-based, human; conditions: 24 h; for effect on wi38 normal cell viability: 50 to 1000 µM
Protocol: as §1
The effects of the investigated compounds on the survival of healthy cells, WI38, have been evaluated and compared to 5-Fluorouracil (5-FU, the standard reference drug) utilizing the MTT test at concentrations ranging from 50 to 1000 µM to further determine whether the substances were secure for usage on living tissues. Three distinct evaluations of each value were carried out to calculate the final findings.

[7] = DPPH free-radical scavenging (antioxidant) assay; conditions: 40–200 µM in methanol, versus ascorbic acid
Protocol: The potential of several compounds to scavenge DPPH free radicals was quantified employing a colorimetric approach. Various doses of all tested compounds (3a–3k) were prepared in methanol (40–200 µM), and standard solutions of ascorbic acid (40–200 µM) were made by dissolving the compound in methanol. After determining the optimal concentration of each compound and ascorbic acid, the solutions were supplemented with DPPH. The radical scavenging capacity (RSC) was calculated by measuring the absorbance at 517 nm and using the Formula (1):% DPPH RSC = (Abs. of control − Abs. of sample or standard)/Abs. of control × 100(1)

BAX [8] = test: qRT-PCR of BAX mRNA in Caco-2 cells; format: cell-based, human; conditions: Caco-2, IC50 concentration
Source text: as §3

BCL-2 [9] = test: qRT-PCR of BCL-2 mRNA in Caco-2 cells; format: cell-based, human; conditions: Caco-2, IC50 concentration
Source text: as §3

[10] = Caco-2, IC50 concentration after pretreatment with Caspase-3 inhibitor Z-DEVD-FMK for 1 h
[11] = Caco-2, compound alone at IC50 concentration, without Caspase-3 inhibitor

Row | SMILES | melting point [°C] | IC50 (Caco-2 cells [1]; Homo sapiens, Caco-2, 24 h) [µM] | further results
1 | O=C(/C=C/C=C/c1ccccc1)c1ccccn1 [3a, (2E,4E)-5-phenyl-1-(pyridin-2-yl)penta-2,4-dien-1-one] | 182 | 725.6 ± 3.69 | 
2 | O=C(/C=C/C=C/c1ccccc1)c1cccnc1 [3b, (2E,4E)-5-phenyl-1-(pyridin-3-yl)penta-2,4-dien-1-one] | 104 | > 1000 | 
3 | O=C(/C=C/C=C/c1ccccc1)c1cccs1 [3c, (2E,4E)-5-phenyl-1-(thiophen-2-yl)penta-2,4-dien-1-one] | 102 | > 1000 | 
4 | O=C(/C=C/C=C/c1ccccc1)c1ccco1 [3d, (2E,4E)-1-(furan-2-yl)-5-phenylpenta-2,4-dien-1-one] |  | > 1000 | 
5 | O=C(/C=C/C=C/c1ccccc1)c1ccc[nH]1 [3e, (2E,4E)-5-phenyl-1-(1H-pyrrol-2-yl)penta-2,4-dien-1-one] | 170 | 32.1 ± 3.92 | IC50 (Caco-2 cells [1]): 32.2 ± 3.92 µM; BAX protein level versus untreated cells (BAX [2]): increased levels; % DNA in Tail (Caco-2 cells [3]; [10]): 4.55± 1.73; Olive Tail Moment (OTM) (Caco-2 cells [3]; [10]): 0.69± 0.16; Tail Moment (Caco-2 cells [3]; [10]): 0.44± 0.08; % DNA in Tail (Caco-2 cells [3]; [11]): 8.18 ± 0.56; Olive Tail Moment (OTM) (Caco-2 cells [3]; [11]): 1.92 ± 0.04; Tail Moment (Caco-2 cells [3]; [11]): 1.19 ± 0.03; percentage of apoptotic cells (early and late) versus untreated (Caco-2 cells [4]): much greater percentage of apoptotic cells; Caspase-3 mRNA expression level versus untreated cells (Caspase-3): increased considerably; cleaved Caspase-3 protein level versus untreated cells (cleaved Caspase-3): increased levels; BCL-2 protein level versus untreated cells (BCL-2 [5]): decreased; LDH levels versus untreated Caco-2 cells (Caco-2 cells [6]): considerably increased; effect on wi38 normal cell viability (wi38 cells): higher % of wi38 cell viability; also recorded: no detrimental effects; antioxidant activity (DPPH scavenging, IC50) compared with the other compounds [7]: highest effective antioxidant activity; BAX mRNA expression level versus untreated cells (BAX [8]): increased considerably; BCL-2 mRNA expression level versus untreated cells (BCL-2 [9]): substantial reduction
6 | O=C(/C=C/C=C/c1ccc([N+](=O)[O-])cc1)c1cccnc1 [3i, (2E,4E)-5-(4-nitrophenyl)-1-(pyridin-3-yl)penta-2,4-dien-1-one] |  | 207 ± 2.31 | 
7 | O=c1[nH]cc(F)c(=O)[nH]1 [5-FU, 5-Fluorouracil, reference compound] |  | 33.1 ± 1.45 | effect on wi38 normal cell viability (wi38 cells): decrease in wi38 cell viability with increasing its concentration; IC50 (wi38 cells; Homo sapiens, WI-38, 50–1000 µM, read-out: IC50 against normal wi38 cell): 22.8 ± 2.46 µM

More lines, main results first:

Row | melting point [°C] | SMILES | IC50 (Caco-2 cells [1]; Homo sapiens, Caco-2, 24 h) [µM] | further results
8 | 195 | COc1ccccc1/C=C/C=C/C(=O)c1ccccn1 [3f, (2E,4E)-5-(2-methoxyphenyl)-1-(pyridin-2-yl)penta-2,4-dien-1-one] | 173 ± 3.84 | 
9 | 177 | COc1ccccc1/C=C/C=C/C(=O)c1ccc[nH]1 [3g, (2E,4E)-5-(2-methoxyphenyl)-1-(1H-pyrrol-2-yl)penta-2,4-dien-1-one] | 336 ± 4.96 | 
10 | 205 | O=C(/C=C/C=C/c1ccc([N+](=O)[O-])cc1)c1ccccn1 [3h, (2E,4E)-5-(4-nitrophenyl)-1-(pyridin-2-yl)penta-2,4-dien-1-one] | 548.6 ± 3.76 | 
11 | 218 | O=C(/C=C/C=C/c1ccc([N+](=O)[O-])cc1)c1cccs1 [3j, (2E,4E)-5-(4-nitrophenyl)-1-(thiophen-2-yl)penta-2,4-dien-1-one] | 149 ± 2.55 | 
12 | 189 | O=C(/C=C/C=C/c1ccc([N+](=O)[O-])cc1)c1ccco1 [3k, (2E,4E)-1-(furan-2-yl)-5-(4-nitrophenyl)penta-2,4-dien-1-one] | 130 ± 3.28 | 

Reference: publication PMC10886690, “Synthesis, Characterization, Antioxidant, and Anticancer Activity against Colon Cancer Cells of Some Cinnamaldehyde-Based Chalcone Derivatives” (Biomolecules, 2024)
